IC50 and MIC data for eight compounds are collected here from patent US10183943B2, “Heterocyclic compounds and their use in preventing or treating bacterial infections” (MUTABILIS, priority 2015, dated 2019).

In one assay the target is T1, TEM-1 (Escherichia coli, UniProt P62593).
T1 construct: made in house; host or cells: E. coli
In words: β-lactamase inhibitory activity, determination of IC50 (nitrocefin hydrolysis). It counts as biochemical.

In the next assay the target is T2, SHV-1 (Klebsiella pneumoniae, UniProt P0AD64).
T2 construct: made in house; host or cells: E. coli
T2 sequence (P0AD64 22-286): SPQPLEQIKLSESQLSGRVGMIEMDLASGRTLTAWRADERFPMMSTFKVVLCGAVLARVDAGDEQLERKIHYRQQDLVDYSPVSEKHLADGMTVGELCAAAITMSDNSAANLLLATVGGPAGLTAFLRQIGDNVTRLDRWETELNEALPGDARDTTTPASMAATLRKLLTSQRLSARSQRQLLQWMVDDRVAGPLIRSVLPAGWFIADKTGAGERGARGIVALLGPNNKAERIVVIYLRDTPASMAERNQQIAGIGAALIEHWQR
Described as above. It counts as biochemical.

A further assay has as its target T3, CTX-M-15 (Escherichia coli, UniProt Q9EXV5).
T3 construct: made in house; host or cells: E. coli
The description is as above. It counts as biochemical. As to conditions: class (A); nitrocefin 200 μM, 30 min pre-incubation; read-out: IC50 β-lactamase CTX-M-15.

A further assay addresses T4, KPC-2 (Klebsiella pneumoniae, UniProt Q9F663).
T4 construct: made in house; host or cells: E. coli
The assay is described as above. It counts as biochemical. As to conditions: class (A); nitrocefin 200 μM, 30 min pre-incubation; read-out: IC50 β-lactamase KPC-2.

A further assay deals with T5, OXA-1 (Escherichia coli, UniProt P13661).
T5 construct: made in house; host or cells: E. coli
T5 sequence (P13661 26-276): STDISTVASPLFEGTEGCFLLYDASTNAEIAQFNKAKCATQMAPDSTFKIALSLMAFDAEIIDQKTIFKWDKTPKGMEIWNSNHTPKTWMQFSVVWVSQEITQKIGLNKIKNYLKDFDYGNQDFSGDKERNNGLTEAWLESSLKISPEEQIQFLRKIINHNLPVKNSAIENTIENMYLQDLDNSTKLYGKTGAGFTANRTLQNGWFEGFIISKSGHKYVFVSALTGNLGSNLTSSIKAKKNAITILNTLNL
The description is as above. It counts as biochemical. The note with it: class (D); nitrocefin 200 μM, 30 min pre-incubation; read-out: IC50 β-lactamase OXA-1.

For another assay, the target named is T6, OXA-11 (Pseudomonas aeruginosa, UniProt Q06778).
T6 construct: made in house; host or cells: E. coli
T6 sequence (Q06778 21-266): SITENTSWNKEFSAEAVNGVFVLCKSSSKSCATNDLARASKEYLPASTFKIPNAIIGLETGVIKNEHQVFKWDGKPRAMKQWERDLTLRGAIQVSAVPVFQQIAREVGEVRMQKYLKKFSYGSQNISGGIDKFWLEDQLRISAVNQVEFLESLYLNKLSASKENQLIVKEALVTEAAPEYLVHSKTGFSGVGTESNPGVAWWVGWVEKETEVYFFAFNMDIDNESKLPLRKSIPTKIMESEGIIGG
The description is as above. It counts as biochemical.

Another assay addresses T7, OXA-15 (Pseudomonas aeruginosa, UniProt Q51574).
T7 construct: made in house; host or cells: E. coli
The experiment in a line: biochemical.

For another assay, the target named is T8, OXA-48 (Klebsiella pneumoniae, UniProt Q6XEC0).
T8 construct: made in house; host or cells: E. coli
T8 sequence (Q6XEC0 23-265 limits assumed): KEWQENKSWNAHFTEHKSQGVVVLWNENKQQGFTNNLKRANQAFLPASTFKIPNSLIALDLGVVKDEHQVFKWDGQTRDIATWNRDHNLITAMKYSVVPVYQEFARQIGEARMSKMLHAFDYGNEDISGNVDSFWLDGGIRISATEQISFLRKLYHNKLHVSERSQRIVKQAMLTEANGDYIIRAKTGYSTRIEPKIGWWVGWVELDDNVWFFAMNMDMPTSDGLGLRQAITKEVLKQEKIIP
In words: β-lactamase inhibitory activity, determination of IC50 (nitrocefin hydrolysis). It counts as biochemical. The note with it: class (D); nitrocefin 200 μM, 30 min pre-incubation; read-out: IC50 β-lactamase OXA-48.

The test system of another assay is E. cloacae P99 (AmpC). The experiment in a line: MIC of compounds alone, broth microdilution. It counts as cell-based. The note with it: Enterobacter cloacae; strain P99 (E. cloacae); read-out: MIC compounds of the invention alone. As to the method: (§1) Method 2: MIC of Compounds and Synergy with Ceftazidime Against Bacterial Isolates (Table 2 and 3)
(§2) Compounds of the present invention were assessed against genotyped bacterial strains alone or in combination with the β-lactam ceftazidime (CAZ). In the assays, MICs of said compounds, or of ceftazidime at fixed concentrations of said compounds were determined by the broth microdilution method according to the Clinical Laboratory Standards Institute (CLSI-M7-A7). Briefly, compounds alone according to the invention were prepared in DMSO and spotted (2 μL each) on sterile polystyrene plates (Corning, 3788). Compounds and ceftazidime dilutions were prepared in DMSO and spotted (1 μL each) on sterile polystyrene plates (Corning, 3788). Log phase bacterial suspensions were adjusted to a final density of 5×10^5 cfu/mL in cation-adjusted Mueller-Hinton broth (Becton-Dickinson) and added to each well (98 μL). Microplates were incubated for 16-20 h at 35° C. in ambient air. The MIC of the compounds was defined as the lowest concentration of said compounds that prevented bacterial growth as read by visual inspection. The MIC of ceftazidime at each compound concentration was defined as the lowest concentration of ceftazidime that prevented bacterial growth as read by visual inspection.

Assay [1] concerns E. coli 131119 (TEM-1, OXA-48). The experiment in a line: MIC of compounds alone, broth microdilution. It counts as cell-based. The note with it: Escherichia coli; strain 131119 (E. coli); read-out: MIC compounds of the invention alone. As to the method:
as §1, §2
In general terms: Dilution methods test growth across graded concentrations, often in twofold steps.

The subject of assay [2] is E. coli 190317 (TEM-1, SHV-12, CTX-M-15, OXA-1). In words: MIC of compounds alone, broth microdilution. It counts as cell-based. The note with it: Escherichia coli, read-out: MIC compounds of the invention alone. The method, then: as §1, §2
The subject of a further assay is E. coli RGN238 (OXA-1). In words: MIC of compounds alone, broth microdilution. The note with it: Escherichia coli; strain RGN238 (E. coli); read-out: MIC compounds of the invention alone. It counts as cell-based. As to the method:
as §1, §2

The subject of assay [3] is K. pneumoniae 6299 (TEM-1, SHV-11, OXA-163). The experiment in a line: MIC of compounds alone, broth microdilution. The note with it: Klebsiella pneumoniae; strain 6299 (K. pneumoniae); read-out: MIC compounds of the invention alone. It counts as cell-based. The method, then: as §1, §2
Assay [4] has as its system K. pneumoniae BAA-1898 (TEM-1, SHV-11, SHV-12, KPC-2). The experiment in a line: MIC of compounds alone, broth microdilution. It counts as cell-based. As to conditions: Klebsiella pneumoniae, BAA1898; strain BAA-1898 (K. pneumoniae); read-out: MIC compounds of the invention alone. As to the method: as §1, §2
In assay [5] the test system is P. aeruginosa CIP107051 (TEM-24). In words: MIC of compounds alone, broth microdilution. It counts as cell-based. As to conditions: Pseudomonas aeruginosa; strain CIP107051 (P. aeruginosa); read-out: MIC compounds of the invention alone. As to the method: as §1, §2
The target in the next assay is AmpC (P99) (Enterobacter cloacae, UniProt P05364). In words: β-lactamase inhibitory activity, determination of IC50 (nitrocefin hydrolysis).
Chain of AmpC (P99) (P05364 21-381): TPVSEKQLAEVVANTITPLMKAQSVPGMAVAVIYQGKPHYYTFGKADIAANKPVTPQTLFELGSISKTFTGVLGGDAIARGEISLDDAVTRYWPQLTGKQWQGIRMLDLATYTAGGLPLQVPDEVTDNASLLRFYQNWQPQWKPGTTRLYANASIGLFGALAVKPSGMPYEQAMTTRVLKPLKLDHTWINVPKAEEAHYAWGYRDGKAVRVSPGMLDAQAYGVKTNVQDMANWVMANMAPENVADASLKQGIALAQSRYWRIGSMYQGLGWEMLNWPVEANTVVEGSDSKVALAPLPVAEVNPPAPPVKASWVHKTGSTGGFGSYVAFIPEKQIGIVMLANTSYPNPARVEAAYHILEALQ
For a further assay, the target named is AmpC P. aeruginosa (Pseudomonas aeruginosa, UniProt P24735). The assay is described as above.
Chain of AmpC P. aeruginosa (P24735 27-397): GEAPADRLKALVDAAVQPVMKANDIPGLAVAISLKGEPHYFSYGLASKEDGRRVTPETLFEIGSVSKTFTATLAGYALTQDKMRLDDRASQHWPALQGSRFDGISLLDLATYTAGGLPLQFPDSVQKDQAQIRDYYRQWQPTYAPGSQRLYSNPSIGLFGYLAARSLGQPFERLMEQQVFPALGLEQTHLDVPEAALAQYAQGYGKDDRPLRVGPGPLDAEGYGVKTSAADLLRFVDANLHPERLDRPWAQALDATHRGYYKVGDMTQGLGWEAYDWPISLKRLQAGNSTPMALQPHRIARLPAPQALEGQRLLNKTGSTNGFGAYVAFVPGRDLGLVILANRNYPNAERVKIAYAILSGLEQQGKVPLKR

The structures appear in SMILES notation. Where only a bound is given, the exact number is not on record here.

T1 sequence (P62593 24-286 limits assumed): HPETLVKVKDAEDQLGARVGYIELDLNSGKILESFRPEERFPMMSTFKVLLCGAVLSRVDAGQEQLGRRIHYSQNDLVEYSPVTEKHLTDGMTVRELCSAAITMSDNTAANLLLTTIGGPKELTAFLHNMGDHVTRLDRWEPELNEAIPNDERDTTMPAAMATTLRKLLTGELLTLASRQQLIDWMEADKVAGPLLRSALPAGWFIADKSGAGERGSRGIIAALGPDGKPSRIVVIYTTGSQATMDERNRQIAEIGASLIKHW
T7 sequence (Q51574 22-275): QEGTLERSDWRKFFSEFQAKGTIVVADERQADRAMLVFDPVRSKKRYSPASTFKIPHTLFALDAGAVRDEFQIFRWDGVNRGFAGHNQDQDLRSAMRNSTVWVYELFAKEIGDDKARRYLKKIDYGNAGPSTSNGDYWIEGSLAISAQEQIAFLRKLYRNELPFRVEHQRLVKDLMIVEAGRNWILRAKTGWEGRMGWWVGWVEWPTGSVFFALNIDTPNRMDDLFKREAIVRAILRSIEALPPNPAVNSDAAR
T4 sequence (Q9F663 25-293 limits assumed): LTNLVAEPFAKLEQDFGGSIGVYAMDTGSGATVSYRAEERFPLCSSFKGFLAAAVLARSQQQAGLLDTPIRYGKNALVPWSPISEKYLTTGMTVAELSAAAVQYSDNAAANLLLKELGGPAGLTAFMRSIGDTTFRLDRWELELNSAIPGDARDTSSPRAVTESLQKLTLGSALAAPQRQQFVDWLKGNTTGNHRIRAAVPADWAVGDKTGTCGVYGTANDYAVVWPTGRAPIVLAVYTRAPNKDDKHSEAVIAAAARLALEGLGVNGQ
T3 sequence (Q9EXV5 entry or part of it): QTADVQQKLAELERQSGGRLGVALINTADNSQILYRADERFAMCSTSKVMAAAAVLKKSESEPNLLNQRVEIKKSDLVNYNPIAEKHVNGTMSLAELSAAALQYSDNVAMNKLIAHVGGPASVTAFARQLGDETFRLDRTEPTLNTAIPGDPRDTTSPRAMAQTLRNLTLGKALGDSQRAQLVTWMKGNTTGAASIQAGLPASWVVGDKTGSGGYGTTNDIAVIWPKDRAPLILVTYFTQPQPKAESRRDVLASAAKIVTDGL

As a reminder, the IC50 is the concentration that inhibits the measured activity by half. Usually MIC stands for the lowest concentration that inhibits growth of the organism. Take `O=C1N2CC=C(c3cn[nH]c3)C(C2)N1OS(=O)(=O)[O-].[Na+]` (stereo not shown) [Example 1, Sodium (7-oxo-4-pyrazol-4-yl-1,6-diaza-bicyclo[3.2.1]oct-3-en-6-yl) sulfate]: the IC50 was 13 nM on TEM-1; 29 nM against SHV-1; 26 nM at CTX-M-15; 770 nM on KPC-2; 1400 nM on OXA-1; 2900 nM on OXA-11. The IC50 came out at 590 nM at OXA-15, 8.9 nM on OXA-48, 6100 nM against AmpC (P99) and 9300 nM against AmpC P. aeruginosa. Also, the MIC with E. cloacae P99 (AmpC) is above 32 µg/mL; in assay [1] it was above 32 µg/mL; in assay [2] it was 32 µg/mL; in the assay on E. coli RGN238 (OXA-1), above 32 µg/mL; in assay [3], above 32 µg/mL; in assay [4], above 32 µg/mL. Also, in [5], the MIC is above 32 µg/mL.

For the compound `Cn1nccc1C1=CCN2CC1N(OS(=O)(=O)[O-])C2=O.[Na+]` (stereo not shown) [Example 2, Sodium [4-(2-methylpyrazol-3-yl)-7-oxo-1,6-diazabicyclo[3.2.1]oct-3-en-6-yl] sulfate], the IC50 against TEM-1 is 2.7 nM; at SHV-1 it was 6.4 nM; at CTX-M-15, 33 nM; on KPC-2 it was 1200 nM; on OXA-1, 64 nM; at OXA-11, 910 nM. Also, the IC50 was found to be 9.8 nM against OXA-15, 2.8 nM on OXA-48, 670 nM on AmpC (P99) and 960 nM on AmpC P. aeruginosa. Moreover, the MIC (in the assay with E. cloacae P99 (AmpC); in [1]; in assay [2]; with E. coli RGN238 (OXA-1); in assay [3]; in assay [4]) was above 32 µg/mL each time. Moreover, the MIC in assay [5] is above 32 µg/mL.

For the compound `O=C1N2CC=C(c3ncco3)C(C2)N1OS(=O)(=O)[O-].[Na+]` (stereo not shown) [Example 4, Sodium [4-(oxazol-2-yl)-7-oxo-1,6-diazabicyclo[3.2.1]oct-3-en-6-yl]sulfate], the IC50 was determined as 2.9 nM against TEM-1; 8.4 nM on SHV-1; 7.5 nM on CTX-M-15; 390 nM on KPC-2; 260 nM on OXA-1; 800 nM on OXA-11. Also, the IC50 on OXA-15 stood at 46 nM; at OXA-48 it was 2.9 nM; against AmpC (P99), 1500 nM; on AmpC P. aeruginosa, 940 nM. For the same compound, the MIC with E. cloacae P99 (AmpC) was 16 µg/mL; in assay [1] it was 16 µg/mL; in assay [2] it was 8 µg/mL; in the assay on E. coli RGN238 (OXA-1), 32 µg/mL; in assay [3], above 32 µg/mL; in [4], above 32 µg/mL. The MIC in assay [5] is above 32 µg/mL.

`O=C1N2CC=C(c3ccncc3)C(C2)N1OS(=O)(=O)[O-].[Na+]` (stereo not shown) [Example 7, Sodium [4-(4-pyridyl)-7-oxo-1,6-diazabicyclo[3.2.1]oct-3-en-6-yl]sulfate]: the IC50 at TEM-1 was determined as 12 nM; against SHV-1, 30 nM; on CTX-M-15 it was 13 nM; on KPC-2, 150 nM; at OXA-1, 250 nM; against OXA-11 it was 2300 nM. For the same compound, the IC50 was 95 nM at OXA-15, 4.9 nM on OXA-48, 1700 nM at AmpC (P99) and 2200 nM against AmpC P. aeruginosa. Further, the MIC is above 32 µg/mL with E. cloacae P99 (AmpC); above 32 µg/mL in assay [1]; 8 µg/mL in assay [2]; above 32 µg/mL with E. coli RGN238 (OXA-1); above 32 µg/mL in assay [3]; above 32 µg/mL in assay [4]. For the same compound, the MIC in assay [5] was above 32 µg/mL.

As to `Cn1cc(C2=CCN3CC2N(OS(=O)(=O)[O-])C3=O)ccc1=O.[Na+]` (stereo not shown) [Example 8, Sodium [4-(N-methyl-6-oxo-3-pyridyl)-7-oxo-1,6-diazabicyclo[3.2.1]oct-3-en-6-yl] sulfate], the IC50 against TEM-1 is 8.2 nM; against SHV-1 it was 19 nM; at CTX-M-15, 12 nM; at KPC-2, 170 nM; on OXA-1, 690 nM; on OXA-11, 1400 nM. Further, the IC50 at OXA-15 worked out at 140 nM; at OXA-48 it was 2.2 nM; against AmpC (P99), 1900 nM; against AmpC P. aeruginosa, 3300 nM. Further, the MIC in the assay on E. cloacae P99 (AmpC) is above 32 µg/mL; in assay [1], above 32 µg/mL; in assay [2], 8 µg/mL; in the assay with E. coli RGN238 (OXA-1), above 32 µg/mL; in [3] it was above 32 µg/mL; in [4], above 32 µg/mL. The MIC in [5] was above 32 µg/mL.

Turning to `O=C1N2CC(n3ccnc3)=CC(C2)N1OS(=O)(=O)[O-].[Na+]` (stereo not shown) [Example 34, Sodium [3-imidazol-1-yl-7-oxo-1,6-diazabicyclo[3.2.1]oct-3-en-6-yl]sulfate], the IC50 at TEM-1 was determined as 7.2 nM; on SHV-1, 21 nM; at CTX-M-15, 2.7 nM; on KPC-2, 24 nM; on OXA-1, 410 nM; at OXA-11, 650 nM. The IC50 came out at 220 nM against OXA-15, 220 nM on OXA-48, 59 nM on AmpC (P99) and 500 nM at AmpC P. aeruginosa. For the same compound, the MIC in the assay on E. cloacae P99 (AmpC) is 8 µg/mL; in assay [1], 8 µg/mL; with E. coli RGN238 (OXA-1) it was 16 µg/mL; in assay [3], 32 µg/mL; in assay [4] it was 16 µg/mL; in [5] it was above 32 µg/mL.

For `O=C1N2CC(c3cnco3)=CC(C2)N1OS(=O)(=O)[O-].[Na+]` (stereo not shown) [Example 35, Sodium [3-(oxazol-5-yl)-7-oxo-1,6-diazabicyclo[3.2.1]oct-3-en-6-yl]sulfate], the IC50 at TEM-1 amounted to 2.3 nM; at SHV-1, 8.4 nM; at CTX-M-15, 0.81 nM; on KPC-2, 8.2 nM; at OXA-1, 1400 nM; on OXA-11, 300 nM. For the same compound, the IC50 at OXA-15 is 74 nM; at OXA-48 it was 2.5 nM; on AmpC (P99), 51 nM; against AmpC P. aeruginosa, 210 nM. Besides, the MIC is 8 µg/mL in the assay with E. cloacae P99 (AmpC); 2 µg/mL in assay [1]; 4 µg/mL with E. coli RGN238 (OXA-1); 8 µg/mL in [3]; 4 µg/mL in assay [4]; above 32 µg/mL in assay [5].

In the case of `O=C1N2CC(c3ncon3)=CC(C2)N1OS(=O)(=O)[O-].[Na+]` (stereo not shown) [Example 36, Sodium [3-(1,2,4-oxadiazol-3-yl)-7-oxo-1,6-diazabicyclo[3.2.1]oct-3-en-6-yl] sulfate], the IC50 on TEM-1 is 2.3 nM; against SHV-1, 16 nM; at CTX-M-15 it was 1.1 nM; at KPC-2 it was 39 nM; at OXA-1 it was 2400 nM; at OXA-11, 920 nM. The IC50 against OXA-15 is 660 nM; on OXA-48, 2.1 nM; at AmpC (P99), 43 nM; on AmpC P. aeruginosa, 160 nM. Besides, the MIC with E. cloacae P99 (AmpC) is 8 µg/mL; in [1], 1 µg/mL; with E. coli RGN238 (OXA-1), 4 µg/mL; in assay [3], 16 µg/mL; in assay [4], 8 µg/mL; in assay [5], above 32 µg/mL.
